Laboratory results reported in ChEMBL document CHEMBL1909046, “DrugMatrix in vitro pharmacology data”.
*1 amine or outer side, *2 acyl side, *3 side chain or, on linkers, in order; H or OH if unused. Where a SMILES comes first, the peptide text is derived from it. Bridges are numbered along the chain shown (N, C = ends). Roman numbers before positions name the chains, in order. [ ]: non-standard residue; d: D form. Actinocin(1to9) = Cc1c2oc3c(C)ccc(C(=O)[*:2])c3nc-2c(C(=O)[*:1])c(N)c1=O; NMeV = CN[C@H](C(=O)O)C(C)C; Sar = CNCC(=O)O

Columns and labels:
Cytochrome P450 2C19 = Cytochrome P450 2C19 (Homo sapiens, UniProt P33261); details: bti-tn-5b1-4; note: in other assays of this panel Not Active means under 50% inhibition at 10 µM
Chain of Cytochrome P450 2C19 (P33261 whole entry): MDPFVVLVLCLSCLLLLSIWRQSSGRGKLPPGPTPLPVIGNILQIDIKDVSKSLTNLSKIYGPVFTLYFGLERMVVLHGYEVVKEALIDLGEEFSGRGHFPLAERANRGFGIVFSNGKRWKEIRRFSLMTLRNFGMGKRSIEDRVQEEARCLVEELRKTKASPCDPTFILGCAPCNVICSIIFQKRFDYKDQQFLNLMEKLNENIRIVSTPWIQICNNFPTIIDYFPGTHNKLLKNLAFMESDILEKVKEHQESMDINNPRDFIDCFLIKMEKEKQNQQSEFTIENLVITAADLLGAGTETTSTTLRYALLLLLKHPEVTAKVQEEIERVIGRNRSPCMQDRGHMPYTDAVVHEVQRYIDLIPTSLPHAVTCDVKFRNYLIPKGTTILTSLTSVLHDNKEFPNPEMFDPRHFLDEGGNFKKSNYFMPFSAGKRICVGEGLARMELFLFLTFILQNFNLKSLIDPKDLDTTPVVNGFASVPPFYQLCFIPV

[1] = biological target: Tyrosine-protein kinase Lck (Homo sapiens, UniProt P06239); experiment: DRUGMATRIX: Protein Tyrosine Kinase, LCK enzyme inhibition (substrate: Poly(Glu:Tyr)); format: cell-based, Insect cells; details: insect cells; Not Active = under 50% inhibition at 10 µM
Chain of Tyrosine-protein kinase Lck (P06239 whole entry): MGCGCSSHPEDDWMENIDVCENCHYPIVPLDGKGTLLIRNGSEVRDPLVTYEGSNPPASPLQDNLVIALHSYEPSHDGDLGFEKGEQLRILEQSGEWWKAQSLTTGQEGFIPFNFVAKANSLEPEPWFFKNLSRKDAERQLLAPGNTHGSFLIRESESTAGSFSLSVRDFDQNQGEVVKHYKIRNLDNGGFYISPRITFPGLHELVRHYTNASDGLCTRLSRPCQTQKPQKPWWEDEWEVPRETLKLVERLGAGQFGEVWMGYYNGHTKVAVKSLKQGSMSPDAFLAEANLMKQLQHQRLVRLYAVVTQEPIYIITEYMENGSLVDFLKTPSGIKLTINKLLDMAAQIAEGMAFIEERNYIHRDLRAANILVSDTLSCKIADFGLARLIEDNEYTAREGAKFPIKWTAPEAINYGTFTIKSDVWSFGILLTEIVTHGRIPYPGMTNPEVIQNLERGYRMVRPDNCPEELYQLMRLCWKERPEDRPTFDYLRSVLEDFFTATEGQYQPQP

Histamine H2 receptor = Histamine H2 receptor (Homo sapiens, UniProt P25021); format: cell membranes, CHO-K1, Membrane; details: cho-k1; note: in other assays of this panel Not Active means under 50% inhibition at 10 µM
Chain of Histamine H2 receptor (P25021 whole entry): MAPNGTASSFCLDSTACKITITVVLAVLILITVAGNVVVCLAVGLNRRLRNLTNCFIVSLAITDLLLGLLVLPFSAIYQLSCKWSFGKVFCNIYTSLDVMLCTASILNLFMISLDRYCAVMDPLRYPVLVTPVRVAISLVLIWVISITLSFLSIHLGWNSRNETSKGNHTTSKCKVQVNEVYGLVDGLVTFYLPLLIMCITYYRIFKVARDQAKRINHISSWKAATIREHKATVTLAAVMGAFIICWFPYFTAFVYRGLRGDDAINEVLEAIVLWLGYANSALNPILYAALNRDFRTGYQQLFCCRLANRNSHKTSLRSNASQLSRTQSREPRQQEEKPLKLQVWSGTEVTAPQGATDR

[2] = DRUGMATRIX: Platelet-Derived Growth Factor (PDGF) radioligand binding (ligand: [125I] PDGF); format: cell-based; details: nih3t3; Not Active = under 50% inhibition at 10 µM
[3] = biological target: Protein kinase C alpha type (Homo sapiens, UniProt P17252); format: cell-based; details: sf9;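 note: inhibition of PKCalpha kinase activity measured in an enzyme assay with histone as the phosphorylation substrate; in other assays of this panel Not Active means under 50% inhibition at 10 µM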
[4] = DRUGMATRIX: beta-Lactamase enzyme inhibition (substrate: Nitrocefin); set-up: species or system Bacillus cereus; details: Not Active = under 50% inhibition at 10 µM
Cathepsin G = biological target: T1, Cathepsin G (Homo sapiens, UniProt P08311); format: tissue-based; details: neutrophil;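 note: inhibition of Cathepsin G enzyme activity, tested on an AMC-conjugated peptide substrate; in other assays of this panel Not Active means under 50% inhibition at 10 µM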
T1 sequence (P08311 whole entry): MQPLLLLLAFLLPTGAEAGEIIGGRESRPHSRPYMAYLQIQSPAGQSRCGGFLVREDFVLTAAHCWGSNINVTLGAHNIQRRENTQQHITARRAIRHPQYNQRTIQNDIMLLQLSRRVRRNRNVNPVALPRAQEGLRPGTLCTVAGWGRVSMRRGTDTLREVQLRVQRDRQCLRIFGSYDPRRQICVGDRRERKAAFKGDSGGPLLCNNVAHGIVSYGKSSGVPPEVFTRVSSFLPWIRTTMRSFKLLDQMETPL

Cc1c2oc3c(C)ccc(C(=O)N[C@@H]4C(=O)N[C@H](C(C)C)C(=O)N5CCC[C@H]5C(=O)N(C)CC(=O)N(C)[C@@H](C(C)C)C(=O)O[C@@H]4C)c3nc-2c(C(=O)N[C@@H]2C(=O)N[C@H](C(C)C)C(=O)N3CCC[C@H]3C(=O)N(C)CC(=O)N(C)[C@@H](C(C)C)C(=O)O[C@@H]2C)c(N)c1=O [DACTINOMYCIN] (I: T[dV]P[Sar][NMeV] / II: T[dV]P[Sar][NMeV]; ester I:1-I:C, II:1-II:C; linker I:N-II:N via Actinocin(1to9))
Not Active: IC50 (Cytochrome P450 2C19) | Ki (Cytochrome P450 2C19) | IC50 [1] | IC50 (Histamine H2 receptor) | IC50 [2] | Ki [2] | IC50 [3] | IC50 [4] | Ki [4] | IC50 (Cathepsin G)

Nc1nc(N)nc(-c2cc(Cl)ccc2Cl)n1.O=C(O)/C=C\C(=O)O [IRSOGLADINE MALEATE]
Not Active: IC50 (Cytochrome P450 2C19) | Ki (Cytochrome P450 2C19) | IC50 [1] | IC50 (Histamine H2 receptor) | IC50 [2] | Ki [2] | IC50 [3] | IC50 [4] | Ki [4] | IC50 (Cathepsin G)

Cc1cc(C2CCCCC2)n(O)c(=O)c1 [CICLOPIROX]
Not Active: IC50 (Cytochrome P450 2C19) | Ki (Cytochrome P450 2C19) | IC50 [1] | IC50 (Histamine H2 receptor) | IC50 [2] | Ki [2] | IC50 [3] | IC50 [4] | Ki [4] | IC50 (Cathepsin G)

CCCCc1nc(Cl)c(CO)n1Cc1ccc(-c2ccccc2-c2nnn[nH]2)cc1 [LOSARTAN]
Not Active: IC50 (Cytochrome P450 2C19) | Ki (Cytochrome P450 2C19) | IC50 [1] | IC50 (Histamine H2 receptor) | IC50 [2] | Ki [2] | IC50 [3] | IC50 [4] | Ki [4] | IC50 (Cathepsin G)

COc1cc2nc(N3CCN(C(=O)C4COc5ccccc5O4)CC3)nc(N)c2cc1OC (stereo not given) [DOXAZOSIN]
Not Active: IC50 (Cytochrome P450 2C19) | Ki (Cytochrome P450 2C19) | IC50 [1] | IC50 (Histamine H2 receptor) | IC50 [2] | Ki [2] | IC50 [3] | IC50 [4] | Ki [4] | IC50 (Cathepsin G)

CCCCN1CCCC[C@H]1C(=O)Nc1c(C)cccc1C [LEVOBUPIVACAINE]
Not Active: IC50 (Cytochrome P450 2C19) | Ki (Cytochrome P450 2C19) | IC50 [1] | IC50 (Histamine H2 receptor) | IC50 [2] | Ki [2] | IC50 [3] | IC50 [4] | Ki [4] | IC50 (Cathepsin G)

Cc1onc(O)c1CC(N)C(=O)O (racemic) [(R,S)-AMPA]
Not Active: IC50 (Cytochrome P450 2C19) | Ki (Cytochrome P450 2C19) | IC50 [1] | IC50 (Histamine H2 receptor) | IC50 [2] | Ki [2] | IC50 [3] | IC50 [4] | Ki [4] | IC50 (Cathepsin G)

CC1CC(OC(=O)C(O)c2ccccc2)CC(C)(C)C1 (stereo not given) [CYCLANDELATE]
Not Active: IC50 (Cytochrome P450 2C19) | Ki (Cytochrome P450 2C19) | IC50 [1] | IC50 (Histamine H2 receptor) | IC50 [2] | Ki [2] | IC50 [3] | IC50 [4] | Ki [4] | IC50 (Cathepsin G)
